How the values were obtained:
uPAR = uPAR (Homo sapiens, UniProt Q03405); conditions: individual N-substituted glycine peptoids
Protocol: Human urokinase plasminogen activator receptor (UPAR) was expressed in a soluble, truncated form as described by Rosenberg et al., W094/28145, incorporated herein by reference. […] The ligand uPA1-48 was prepared as described in Rosenberg, supra.

sUPAR = sUPAR (Homo sapiens, UniProt Q03405); conditions: mixture 1 μM per compound, sUPAR 1 μM
sUPAR, sequence (Q03405 23-305): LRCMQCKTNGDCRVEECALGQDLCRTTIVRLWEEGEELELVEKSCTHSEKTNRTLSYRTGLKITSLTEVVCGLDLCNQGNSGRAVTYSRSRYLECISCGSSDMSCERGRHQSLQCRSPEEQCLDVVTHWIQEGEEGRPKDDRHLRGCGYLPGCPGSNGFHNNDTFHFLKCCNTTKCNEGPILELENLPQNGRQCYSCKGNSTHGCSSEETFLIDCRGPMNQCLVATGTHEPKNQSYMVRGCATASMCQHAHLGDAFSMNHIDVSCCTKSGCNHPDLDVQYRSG
Protocol: The mixture (1 μM per compound) was contacted with sUPAR (1 μM) in the presence and absence of uPA1-48(2 μM), incubated for 30 minutes, and applied to a SEC HPLC column (Pharmacia HSIO/IO). The compound-target complex eluting in the excluded volume of the column was collected and analyzed on an ES MS (PE-Sciex).

uPAR, sequence (Q03405 23-305): as above

Substance	activity (affinity for uPAR) (uPAR)	selection as compound-target complex, detected by ES MS (sUPAR; absence of uPA1-48, 30 minutes, SEC HPLC excluded volume)	specificity of selection, by competition with ligand uPA1-48 (sUPAR; presence of uPA1-48 (2 μM))
1,4-benzodioxane	insignificant activity	–	–
diphenyl	–	selected	specificity was confirmed by competition

— US5891742A, “Affinity selection of ligands by mass spectroscopy” (Chiron Corporation, priority 1995, dated 1999)
